Measurements as given in ChEMBL document CHEMBL1201862, “PubChem BioAssay data set” (2004).
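All cell lines were grown in 96-well plates and treated with compound for 48 hours. Here, GI50 denotes the concentration required for 50% inhibition of growth.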 Activity calls are given as the source filed them. Cut-off read from the data, not from the text of the source: active = GI50 up to about 1.1 µM and inactive = higher.

Tests used:
Assay in all cases: inhibition of tumour cell growth, NCI panel, 48 h
HCT-116 = test system: HCT-116
M14 = test system: M14
786-0 = test system: 786-0
RPMI-8226 = test system: RPMI-8226
IGROV-1 = test system: IGROV-1
SF-268 = test system: SF-268
T47D = test system: T47D
NCI/ADR-RES = test system: NCI/ADR-RES
LOX IMVI = test system: LOX IMVI
HCT-15 = test system: HCT-15
NCI-H522 = test system: NCI-H522
SNB-19 = test system: SNB-19
SK-MEL-28 = test system: SK-MEL-28
HT-29 = test system: HT-29
OVCAR-8 = test system: OVCAR-8
SK-OV-3 = test system: SK-OV-3
EKVX = test system: EKVX
HL-60 = test system: HL-60
SW-620 = test system: SW-620
MDA-N = test system: MDA-N
BT-549 = test system: BT-549
COLO 205 = test system: COLO 205
OVCAR-3 = test system: OVCAR-3
NCI-H226 = test system: NCI-H226
KM12 = test system: KM12
HOP-62 = test system: HOP-62
MDA-MB-435 = test system: MDA-MB-435
SR = test system: SR
MCF7 = test system: MCF7
CAKI-1 = test system: CAKI-1
A498 = test system: A498
UACC-62 = test system: UACC-62
OVCAR-4 = test system: OVCAR-4
Malme-3M = test system: Malme-3M
MDA-MB-231 = test system: MDA-MB-231
PC-3 = test system: PC-3
SK-MEL-2 = test system: SK-MEL-2
TK-10 = test system: TK-10
UACC-257 = test system: UACC-257
DU-145 = test system: DU-145
UO-31 = test system: UO-31
HOP-92 = test system: HOP-92
NCI-H460 = test system: NCI-H460
Hs-578T = test system: Hs-578T
MOLT-4 = test system: MOLT-4
SN12C = test system: SN12C
SF-295 = test system: SF-295
SF-539 = test system: SF-539
U-251 = test system: U-251
RXF 393 = test system: RXF 393
CCRF-CEM = test system: CCRF-CEM
K562 = test system: K562
A549 = test system: A549
NCI-H23 = test system: NCI-H23
OVCAR-5 = test system: OVCAR-5
HCC 2998 = test system: HCC 2998
SNB-75 = test system: SNB-75
ACHN = test system: ACHN
SK-MEL-5 = test system: SK-MEL-5

CC(=O)c1nc2ccccc2n1CC(=O)c1ccc(Cl)cc1
GI50 (HCT-116): 2.01 µM (inactive)
GI50 (M14): 2.92 µM (inactive)
GI50 (786-0): 3.13 µM (inactive)
GI50 (RPMI-8226): 3.65 µM (inactive)
GI50 (IGROV-1): 1.39 µM (inactive)
GI50 (SF-268): 3.94 µM (inactive)
GI50 (T47D): 2.45 µM (inactive)
GI50 (NCI/ADR-RES): 2.94 µM (inactive)
GI50 (LOX IMVI): 0.925 µM (active)
GI50 (HCT-15): 5.2 µM
GI50 (NCI-H522): 2.79 µM (inactive)
GI50 (SNB-19): 7.4 µM (inactive)
GI50 (SK-MEL-28): 8.83 µM (inactive)
GI50 (HT-29): 12.1 µM (inactive)
GI50 (OVCAR-8): 2.4 µM (inactive)
GI50 (SK-OV-3): 28.1 µM (inactive)
GI50 (EKVX): 38.2 µM (inactive)
GI50 (HL-60): 1.79 µM (inactive)
GI50 (SW-620): 2.67 µM (inactive)
GI50 (MDA-N): 1.93 µM (inactive)
GI50 (BT-549): 3.55 µM (inactive)
GI50 (COLO 205): 20.9 µM (inactive)
GI50 (OVCAR-3): 4.37 µM (inactive)
GI50 (NCI-H226): 12 µM (inactive)
GI50 (KM12): 3.02 µM (inactive)
GI50 (HOP-62): 5.85 µM (inactive)
GI50 (MDA-MB-435): 2.09 µM (inactive)
GI50 (SR): 4.84 µM (inactive)
GI50 (MCF7): 3.73 µM (inactive)
GI50 (CAKI-1): 5.25 µM (inactive)
GI50 (A498): 54.3 µM (inactive)
GI50 (UACC-62): 2.02 µM (inactive)
GI50 (OVCAR-4): 5.26 µM (inactive)
GI50 (Malme-3M): 3.19 µM (inactive)
GI50 (MDA-MB-231): 2.79 µM (inactive)
GI50 (PC-3): 5.45 µM (inactive)
GI50 (SK-MEL-2): 14.7 µM (inactive)
GI50 (TK-10): 61.2 µM (inactive)
GI50 (UACC-257): 5.68 µM (inactive)
GI50 (DU-145): 13.4 µM (inactive)
GI50 (UO-31): 9.25 µM (inactive)
GI50 (HOP-92): 1.03 µM (active)
GI50 (NCI-H460): 2.45 µM (inactive)
GI50 (Hs-578T): 17.2 µM (inactive)
GI50 (MOLT-4): 4.05 µM (inactive)
GI50 (SN12C): 5.69 µM (inactive)
GI50 (SF-295): 13.4 µM (inactive)
GI50 (SF-539): 7.36 µM (inactive)
GI50 (U-251): 2.99 µM (inactive)
GI50 (RXF 393): 17.6 µM (inactive)
GI50 (CCRF-CEM): 4.09 µM (inactive)
GI50 (K562): 1.52 µM (inactive)
GI50 (A549): 3.17 µM (inactive)
GI50 (NCI-H23): 7.64 µM (inactive)

COCOc1cc(OC)ccc1C=O
GI50 (HCT-116): 33.7 µM (inactive)
GI50 (M14): 35.2 µM (inactive)
GI50 (786-0): 36.6 µM (inactive)
GI50 (IGROV-1): 33.1 µM (inactive)
GI50 (SF-268): 64.9 µM (inactive)
GI50 (T47D): 44.7 µM (inactive)
GI50 (NCI/ADR-RES): 17.3 µM (inactive)
GI50 (LOX IMVI): 53 µM (inactive)
GI50 (HCT-15): 36.4 µM
GI50 (NCI-H522): 27.6 µM (inactive)
GI50 (SNB-19): 46.1 µM (inactive)
GI50 (SK-MEL-28): > 100 µM (inactive)
GI50 (HT-29): 25.6 µM (inactive)
GI50 (OVCAR-8): 41.3 µM (inactive)
GI50 (SK-OV-3): 62.4 µM (inactive)
GI50 (EKVX): 52.1 µM (inactive)
GI50 (HL-60): 26.7 µM (inactive)
GI50 (SW-620): 32.8 µM (inactive)
GI50 (MDA-N): 5.58 µM (inactive)
GI50 (OVCAR-5): > 100 µM (inactive)
GI50 (BT-549): 58.1 µM (inactive)
GI50 (COLO 205): 24.9 µM (inactive)
GI50 (OVCAR-3): 20.9 µM (inactive)
GI50 (NCI-H226): 40.8 µM (inactive)
GI50 (KM12): 34 µM (inactive)
GI50 (HOP-62): 72.3 µM (inactive)
GI50 (MDA-MB-435): 8.39 µM (inactive)
GI50 (SR): 11.3 µM (inactive)
GI50 (MCF7): 24.5 µM (inactive)
GI50 (HCC 2998): 24.2 µM (inactive)
GI50 (CAKI-1): 86.9 µM (inactive)
GI50 (UACC-62): 54.2 µM (inactive)
GI50 (OVCAR-4): 78 µM (inactive)
GI50 (Malme-3M): 11.6 µM (inactive)
GI50 (MDA-MB-231): 51.3 µM (inactive)
GI50 (PC-3): 21.8 µM (inactive)
GI50 (SK-MEL-2): 34 µM (inactive)
GI50 (TK-10): 31.6 µM (inactive)
GI50 (UACC-257): 28.6 µM (inactive)
GI50 (DU-145): 53.3 µM (inactive)
GI50 (SNB-75): 27.5 µM (inactive)
GI50 (UO-31): 64 µM (inactive)
GI50 (ACHN): 95.7 µM (inactive)
GI50 (NCI-H460): 38.5 µM (inactive)
GI50 (Hs-578T): 14.8 µM (inactive)
GI50 (MOLT-4): 37.2 µM (inactive)
GI50 (SN12C): 34.5 µM (inactive)
GI50 (SF-295): 39 µM (inactive)
GI50 (SF-539): 21.5 µM (inactive)
GI50 (U-251): 30 µM (inactive)
GI50 (RXF 393): 14.7 µM (inactive)
GI50 (CCRF-CEM): 20.7 µM (inactive)
GI50 (SK-MEL-5): 27.4 µM (inactive)
GI50 (K562): 23.9 µM (inactive)
GI50 (A549): > 100 µM (inactive)
GI50 (NCI-H23): 35.6 µM (inactive)

Cc1ccc(-c2cc(C(F)(F)F)nn2-c2ccc(S(N)(=O)=O)cc2)cc1 [CELECOXIB]
GI50 (HCT-116): 55 µM (inactive)
GI50 (M14): 67.9 µM (inactive)
GI50 (786-0): 37.1 µM (inactive)
GI50 (RPMI-8226): 3.85 µM (inactive)
GI50 (IGROV-1): 15.4 µM (inactive)
GI50 (SF-268): 16.9 µM (inactive)
GI50 (T47D): 16.8 µM (inactive)
GI50 (NCI/ADR-RES): 16.2 µM (inactive)
GI50 (LOX IMVI): 18.2 µM (inactive)
GI50 (HCT-15): 15.9 µM
GI50 (SNB-19): 18 µM (inactive)
GI50 (SK-MEL-28): 17.6 µM (inactive)
GI50 (HT-29): 16.5 µM (inactive)
GI50 (OVCAR-8): 19.7 µM (inactive)
GI50 (SK-OV-3): 18.3 µM (inactive)
GI50 (EKVX): 17.9 µM (inactive)
GI50 (HL-60): 14.8 µM (inactive)
GI50 (SW-620): 16.9 µM (inactive)
GI50 (MDA-N): 17.1 µM (inactive)
GI50 (OVCAR-5): 19.7 µM (inactive)
GI50 (BT-549): 18.5 µM (inactive)
GI50 (COLO 205): 16.1 µM (inactive)
GI50 (OVCAR-3): 17.6 µM (inactive)
GI50 (KM12): 15.1 µM (inactive)
GI50 (HOP-62): 67.9 µM (inactive)
GI50 (MDA-MB-435): 17.5 µM (inactive)
GI50 (SR): 16.1 µM (inactive)
GI50 (MCF7): 17.5 µM (inactive)
GI50 (HCC 2998): 15.7 µM (inactive)
GI50 (CAKI-1): 19.6 µM (inactive)
GI50 (A498): 15.1 µM (inactive)
GI50 (UACC-62): 15.4 µM (inactive)
GI50 (OVCAR-4): 12.4 µM (inactive)
GI50 (Malme-3M): 18.6 µM (inactive)
GI50 (MDA-MB-231): 15.6 µM (inactive)
GI50 (PC-3): 13.4 µM (inactive)
GI50 (SK-MEL-2): 16.1 µM (inactive)
GI50 (TK-10): 18.8 µM (inactive)
GI50 (UACC-257): 19.7 µM (inactive)
GI50 (DU-145): 16.3 µM (inactive)
GI50 (SNB-75): 15.6 µM (inactive)
GI50 (UO-31): 14.8 µM (inactive)
GI50 (ACHN): 17.5 µM (inactive)
GI50 (NCI-H460): 15.8 µM (inactive)
GI50 (Hs-578T): 18.5 µM (inactive)
GI50 (MOLT-4): 17.3 µM (inactive)
GI50 (SN12C): 15.6 µM (inactive)
GI50 (SF-295): 16.6 µM (inactive)
GI50 (SF-539): 18.1 µM (inactive)
GI50 (U-251): 16.1 µM (inactive)
GI50 (RXF 393): 17.1 µM (inactive)
GI50 (CCRF-CEM): 14 µM (inactive)
GI50 (SK-MEL-5): 14.8 µM (inactive)
GI50 (K562): 10.1 µM (inactive)
GI50 (A549): 14.4 µM (inactive)
GI50 (NCI-H23): 17.1 µM (inactive)
